Laboratory results: patent US12447160B2, “Topical treatment of wounds with statins and cholesterol for scar reduction” (Northwestern University, priority 2017, dated 2025)
Blank lines part the entries; values can stand above or below the molecule they belong to.

How the values were obtained:
[1] = Solubility of statins in the topical vehicle / microemulsion system; format: physicochemical
Excerpt: Transdermal penetration is the critical limitation in topical application. […] The stratum corneum is hydrophobic and a barrier for any topically applied reagent, and so hydrophobic statins should have increased penetration^18. […] Dosing schedules were chosen based upon in vitro dosing necessary to interfere with CTGF expression^11-13,22,23, and extrapolated to animal models based upon our experience with dose response curves for growth factors in our rabbit ear model^24.

hypertrophic scar = assay: Rabbit ear hypertrophic scar model, scar elevation index (SEI) by histomorphometry; format: in vivo, New Zealand White rabbits
Collagen 1A1 mRNA = assay: Quantification of Collagen 1A1 mRNA expression in dermal scar tissue (qPCR); format: in vivo, New Zealand White rabbits; conditions: high-dose (10%) simvastatin topical, mean±SEM, p<0.01
Description: (§1) Total RNA was extracted from dermal scar tissue of high-dose simvastatin topical treatment and control scars using TRI reagent (Sigma-Aldrich, St. Louis, MO), and contaminated DNA was removed with Turbo DNA-free kit (Ambion, Austin, TX). The cDNA was synthesized from one μg of total RNA by superscript II reverse transcriptase (Invitrogen, Grand Island, NY) with 100 ng of random primers in 20 μl of volume. Synthesized cDNA was quantified in a sequence detection system (ABI StepOnePlus; Applied Biosystems, Foster City, CA) using SYBR green and specific primers of CTGF and collagen 1A1, and 18 S rRNA was set as endogenous control. The sequence of primers is as followed: CTGF (5′-CTTCTGTCGGCTGGAGAAAC-3′ (SEQ ID NO:1) & 5′-TTAGCCCGGTACGTCTTCAC-3′ (SEQ ID NO:2)); Collagen 1A1: (5′-TAAGAGCTCCAAGGCCAAGA-3′(SEQ ID NO:3) & 5′-TGTTCTGAGAGGCGTGATTG-3′ (SEQ ID NO:4)); Glyceraldehyde 3-phosphate dehydrogenase (5′-AGGTCATCCACGACCACTTC-3′ (SEQ ID NO:5) & 5′-GTGAGTTTCCCGTTCAGCTC-3′ (SEQ ID NO:6)).
(§2) For statistical analysis of histological and molecular analysis results, Student's paired t test was applied to see if there is a difference between treatment and control group, p<0.05 was used as significant. All values were represented as mean±standard error.

CTGF mRNA = assay: Quantification of CTGF mRNA expression in dermal scar tissue (qPCR); format: in vivo, New Zealand White rabbits; conditions: high-dose (10%) simvastatin topical, mean±SEM, p<0.01
Description: as §1, §2

- Solubility in the vehicle tested [1]: limited solubility
SMILES: CC[C@H](C)C(=O)O[C@H]1C[C@@H](C)C=C2C=C[C@H](C)[C@H](CC[C@@H]3C[C@@H](O)CC(=O)O3)[C@H]21 [lovastatin]

SMILES: CC[C@H](C)C(=O)O[C@H]1C[C@H](O)C=C2C=C[C@H](C)[C@H](CC[C@@H](O)C[C@@H](O)CC(=O)O)[C@H]21 [pravastatin]
- Scar elevation index (SEI) (hypertrophic scar; intradermal 100 μl 10 μM pravastatin in PBS per wound at POD 15, 18, 21, harvest POD 28, mean±standard error, saline control 1.71±0.08, p=0.0009): 1.55±0.07

SMILES: CCC(C)(C)C(=O)O[C@H]1C[C@@H](C)C=C2C=C[C@H](C)[C@H](CC[C@@H]3C[C@@H](O)CC(=O)O3)[C@H]21 [simvastatin]
- mRNA expression of Collagen 1A1 compared to vehicle control (Collagen 1A1 mRNA): 48.5±14%
- mRNA expression of CTGF compared to vehicle control (CTGF mRNA): 53.8±8.0%

SMILES: CC(C)CCC[C@@H](C)[C@H]1CC[C@H]2[C@@H]3CC=C4C[C@@H](O)CC[C@]4(C)[C@H]3CC[C@]12C [cholesterol]
- Effect of cholesterol on reducing scarring (hypertrophic scar; topical cholesterol in vehicle): mild, not statistically effect
